How the values were obtained:
AasS [1] = target: T1, AasS (Vibrio harveyi, UniProt Q00IB3); test: cryo-EM structure; type: binding; settings: 2 mM MgCl2, 5 mM AMP-PNP; tetramer; ATP site
T1 sequence (Q00IB3 1-533): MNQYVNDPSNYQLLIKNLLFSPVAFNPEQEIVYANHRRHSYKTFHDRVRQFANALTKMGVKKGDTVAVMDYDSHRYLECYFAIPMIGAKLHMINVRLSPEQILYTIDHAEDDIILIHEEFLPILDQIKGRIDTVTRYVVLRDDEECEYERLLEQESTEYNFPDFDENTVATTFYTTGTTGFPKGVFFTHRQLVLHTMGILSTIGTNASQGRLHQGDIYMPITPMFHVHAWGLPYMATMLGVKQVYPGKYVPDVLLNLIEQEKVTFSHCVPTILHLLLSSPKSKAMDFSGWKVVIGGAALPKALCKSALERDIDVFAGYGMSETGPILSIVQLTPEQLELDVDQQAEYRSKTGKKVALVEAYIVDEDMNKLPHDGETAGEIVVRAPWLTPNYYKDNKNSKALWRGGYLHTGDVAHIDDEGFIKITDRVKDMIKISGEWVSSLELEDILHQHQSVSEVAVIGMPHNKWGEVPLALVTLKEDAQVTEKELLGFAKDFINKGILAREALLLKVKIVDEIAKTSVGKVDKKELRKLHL

AasS [2] = target: T1, AasS; test: cryo-EM structure; type: binding; settings: 1.5 mM ATP, no Mg2+; hexamer; phosphate density not continuous
AasS [3] = target: T1, AasS; test: ITC, one set of sites; type: binding
SEC = target: the molecule itself; test: SEC

Nc1ncnc2c1ncn2[C@@H]1O[C@H](COP(=O)(O)OP(=O)(O)NP(=O)(O)O)[C@@H](O)[C@H]1O [AMP-PNP] was tested, and the “cryo-EM structure (2.68 Å)” value (AasS [1]) was “continuous density for the bound AMP-PNP cofactor”.

For Nc1ncnc2c1ncn2[C@@H]1O[C@H](COP(=O)(O)OP(=O)(O)OP(=O)(O)O)[C@@H](O)[C@H]1O [ATP], the “cryo-EM structure (2.45 Å)” value (AasS [2]) was “the cryo-EM structure of ATP-liganded AasS remains a hexamer ring”.

CCOC(=O)CCCCCC(=O)O [E-pim] showed a Kd (AasS [3]) of ~6.45 µM.

B1: Vibrio harveyi acyl-ACP synthetase AasS, recombinant with an N-terminal 6xHis-tag (enzyme, UniProt Q00IB3 1-533, looked up)
chain: MNQYVNDPSNYQLLIKNLLFSPVAFNPEQEIVYANHRRHSYKTFHDRVRQFANALTKMGVKKGDTVAVMDYDSHRYLECYFAIPMIGAKLHMINVRLSPEQILYTIDHAEDDIILIHEEFLPILDQIKGRIDTVTRYVVLRDDEECEYERLLEQESTEYNFPDFDENTVATTFYTTGTTGFPKGVFFTHRQLVLHTMGILSTIGTNASQGRLHQGDIYMPITPMFHVHAWGLPYMATMLGVKQVYPGKYVPDVLLNLIEQEKVTFSHCVPTILHLLLSSPKSKAMDFSGWKVVIGGAALPKALCKSALERDIDVFAGYGMSETGPILSIVQLTPEQLELDVDQQAEYRSKTGKKVALVEAYIVDEDMNKLPHDGETAGEIVVRAPWLTPNYYKDNKNSKALWRGGYLHTGDVAHIDDEGFIKITDRVKDMIKISGEWVSSLELEDILHQHQSVSEVAVIGMPHNKWGEVPLALVTLKEDAQVTEKELLGFAKDFINKGILAREALLLKVKIVDEIAKTSVGKVDKKELRKLHL
In the case of B1, the “stoichiometry N” value (SEC) is reported as 6.
